The results in this text go back to ChEMBL document CHEMBL1909046, “DrugMatrix in vitro pharmacology data”.

One assay deals with T1, D(4) dopamine receptor (Homo sapiens, UniProt P21917).
T1 sequence (P21917 whole entry): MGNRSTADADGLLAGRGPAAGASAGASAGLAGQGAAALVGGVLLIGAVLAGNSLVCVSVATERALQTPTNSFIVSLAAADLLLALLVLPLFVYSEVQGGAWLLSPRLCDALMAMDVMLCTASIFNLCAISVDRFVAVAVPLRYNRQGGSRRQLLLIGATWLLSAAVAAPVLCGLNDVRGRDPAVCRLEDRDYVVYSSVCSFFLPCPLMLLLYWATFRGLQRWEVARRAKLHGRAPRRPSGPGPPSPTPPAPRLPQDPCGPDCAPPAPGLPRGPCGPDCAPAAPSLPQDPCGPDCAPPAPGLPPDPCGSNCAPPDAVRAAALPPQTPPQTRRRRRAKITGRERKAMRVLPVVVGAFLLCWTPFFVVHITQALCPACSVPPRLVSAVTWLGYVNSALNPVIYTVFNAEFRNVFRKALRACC
The experiment in a line: DRUGMATRIX: Dopamine D4.2 radioligand binding (ligand: [3H] Spiperone). It counts as cell membranes, CHO-K1, Membrane. Conditions: cho-k1; Not Active = under 50% inhibition at 10 µM.

A further assay deals with T2, Estrogen receptor (Homo sapiens, UniProt P03372).
T2 sequence (P03372 whole entry): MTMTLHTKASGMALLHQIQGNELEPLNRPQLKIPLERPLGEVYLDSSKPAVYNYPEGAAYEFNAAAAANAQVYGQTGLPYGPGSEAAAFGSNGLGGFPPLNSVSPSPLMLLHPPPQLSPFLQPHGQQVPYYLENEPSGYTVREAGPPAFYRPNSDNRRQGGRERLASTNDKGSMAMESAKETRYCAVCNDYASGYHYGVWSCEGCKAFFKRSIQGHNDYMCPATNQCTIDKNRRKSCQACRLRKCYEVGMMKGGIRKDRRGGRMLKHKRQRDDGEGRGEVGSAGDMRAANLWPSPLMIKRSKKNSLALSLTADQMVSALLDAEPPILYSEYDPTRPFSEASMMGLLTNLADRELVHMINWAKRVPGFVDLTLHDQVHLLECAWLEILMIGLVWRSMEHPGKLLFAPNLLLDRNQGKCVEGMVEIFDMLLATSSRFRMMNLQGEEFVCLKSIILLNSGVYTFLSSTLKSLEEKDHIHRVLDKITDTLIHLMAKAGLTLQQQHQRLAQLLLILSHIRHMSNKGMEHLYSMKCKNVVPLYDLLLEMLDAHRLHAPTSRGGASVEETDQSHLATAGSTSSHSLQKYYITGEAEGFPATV
Conditions: sf9.

Assay [1] in a line: DRUGMATRIX: GABAA, Chloride Channel, TBOB radioligand binding (ligand: [3H] TBOB). It counts as cell membranes, Rattus norvegicus, Wistar, Cerebral cortex, Membrane. To be noted: Not Active = under 50% inhibition at 10 µM.
Assay [2] has as its target T3, Alpha-1B adrenergic receptor (Rattus norvegicus, UniProt P15823).
T3 sequence (P15823 whole entry): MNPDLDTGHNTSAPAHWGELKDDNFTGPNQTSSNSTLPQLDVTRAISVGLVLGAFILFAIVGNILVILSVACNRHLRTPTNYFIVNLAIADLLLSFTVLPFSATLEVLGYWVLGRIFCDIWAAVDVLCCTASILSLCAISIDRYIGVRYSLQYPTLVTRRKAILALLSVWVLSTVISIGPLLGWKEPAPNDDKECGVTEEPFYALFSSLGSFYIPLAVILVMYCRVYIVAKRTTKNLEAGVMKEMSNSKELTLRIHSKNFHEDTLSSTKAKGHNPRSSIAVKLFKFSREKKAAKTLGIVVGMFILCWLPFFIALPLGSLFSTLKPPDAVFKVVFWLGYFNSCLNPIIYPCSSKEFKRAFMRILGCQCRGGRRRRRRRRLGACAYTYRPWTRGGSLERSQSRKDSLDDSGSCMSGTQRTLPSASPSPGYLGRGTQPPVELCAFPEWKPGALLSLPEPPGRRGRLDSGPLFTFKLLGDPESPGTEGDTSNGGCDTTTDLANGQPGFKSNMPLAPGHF
The experiment in a line: DRUGMATRIX: Alpha-1B adrenergic receptor radioligand binding (ligand: prazosin). It counts as cell membranes, Wistar, Liver, Membrane. Conditions: Not Active = under 50% inhibition at 10 µM.

Assay [3] addresses 5-hydroxytryptamine receptor 2B (Homo sapiens, UniProt P41595). It counts as cell membranes, CHO-K1, Membrane. To be noted: for Ki: read-out: Ki.
For the next assay, the target named is T4, Progesterone receptor (Bos taurus, UniProt Q690N0).
T4 sequence (Q690N0 whole entry): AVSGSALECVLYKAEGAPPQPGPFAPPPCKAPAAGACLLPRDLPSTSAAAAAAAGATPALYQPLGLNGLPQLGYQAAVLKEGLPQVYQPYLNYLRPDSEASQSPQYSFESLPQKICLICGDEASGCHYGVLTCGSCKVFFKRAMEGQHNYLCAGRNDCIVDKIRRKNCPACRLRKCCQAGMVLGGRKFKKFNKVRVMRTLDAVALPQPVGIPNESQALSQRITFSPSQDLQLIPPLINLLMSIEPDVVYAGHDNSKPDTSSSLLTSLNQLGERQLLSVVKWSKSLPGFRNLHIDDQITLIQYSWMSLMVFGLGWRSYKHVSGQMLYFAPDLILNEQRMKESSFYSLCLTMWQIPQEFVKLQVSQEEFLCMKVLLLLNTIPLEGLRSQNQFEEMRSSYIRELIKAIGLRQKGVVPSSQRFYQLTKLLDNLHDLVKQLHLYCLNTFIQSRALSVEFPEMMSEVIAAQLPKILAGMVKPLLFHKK
The experiment in a line: DRUGMATRIX: Progesterone radioligand binding (ligand: [3H] R-5020). It counts as tissue-based, Uterus. To be noted: Not Active = under 50% inhibition at 10 µM.

A word on the IC50: it is the concentration at which inhibition is half-maximal. For orientation: Ki means a measure of affinity in units of concentration, obtained from inhibition or displacement.

5-hydroxytryptamine receptor 2B, sequence (P41595 whole entry): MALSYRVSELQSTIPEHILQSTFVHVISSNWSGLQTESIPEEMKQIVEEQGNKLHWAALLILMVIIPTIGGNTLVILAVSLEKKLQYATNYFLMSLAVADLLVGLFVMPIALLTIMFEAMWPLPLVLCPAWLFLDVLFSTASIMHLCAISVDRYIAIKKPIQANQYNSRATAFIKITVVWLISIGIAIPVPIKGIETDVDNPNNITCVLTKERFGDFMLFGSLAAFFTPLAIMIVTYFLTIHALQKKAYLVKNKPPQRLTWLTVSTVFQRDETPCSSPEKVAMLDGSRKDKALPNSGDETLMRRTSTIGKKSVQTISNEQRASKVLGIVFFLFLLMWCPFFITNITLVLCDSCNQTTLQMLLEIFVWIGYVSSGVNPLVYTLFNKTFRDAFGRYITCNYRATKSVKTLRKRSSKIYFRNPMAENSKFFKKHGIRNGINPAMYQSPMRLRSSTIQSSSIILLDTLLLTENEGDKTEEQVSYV

For `Cc1c(C)c2c(c(C)c1O)CCC(C)(CN1CCN(c3cc(N4CCCC4)nc(N4CCCC4)n3)CC1)O2` (stereo unspecified), the IC50 entry on D(4) dopamine receptor is “Not Active”; against Estrogen receptor it was “Not Active”; in assay [1] it was “Not Active”; in assay [2], “Not Active”; in assay [3] (read-out: IC50), 519 nM; at Progesterone receptor, “Not Active”. Further, the Ki entry in assay [1] was “Not Active”; in assay [3], 330 nM.

Turning to `CC(C)Cc1ccc([C@@H](C)C(=O)O)cc1` [(R)-IBUPROPHEN], the IC50 result (at D(4) dopamine receptor; at Estrogen receptor; in assay [1]; in assay [2]; in assay [3] (cho-k1); at Progesterone receptor) was “Not Active” in each case. In addition, the Ki result in assay [1] is listed as “Not Active”.

Regarding `CNC1(c2ccccc2Cl)CCCCC1=O` (stereo unspecified) [KETAMINE], the IC50 entry (on D(4) dopamine receptor; on Estrogen receptor; in assay [1]; in assay [2]; in assay [3] (cho-k1); on Progesterone receptor) was “Not Active” throughout. In addition, the Ki entry in assay [1] is listed as “Not Active”.

Turning to `N#Cc1ccc(C(c2ccc(C#N)cc2)n2cncn2)cc1` [LETROZOLE], the 50% inhibitory concentration (IC50) result (on D(4) dopamine receptor; at Estrogen receptor; in assay [1]; in assay [2]; in assay [3] (cho-k1); at Progesterone receptor) was “Not Active” each time. Also, the inhibition constant (Ki) entry in assay [1] is reported as “Not Active”.

Take `O=C1Nc2ccc(Cl)cc2C(c2ccccc2Cl)=NC1O` (stereo unspecified) [LORAZEPAM]: the half-maximal inhibitory concentration (IC50) entry (at D(4) dopamine receptor; at Estrogen receptor; in assay [1]; in assay [2]; in assay [3] (cho-k1); on Progesterone receptor) was “Not Active” throughout. Besides, the inhibitory constant (Ki) result in assay [1] was “Not Active”.

As to `CO[C@@H]1[C@@H](OC)[C@H](C)[C@@](O)(CC(=O)O)O[C@H]1[C@H](C)[C@H]1O[C@@]2(CC[C@@](C)([C@H]3CC[C@@](C)([C@@H]4O[C@@H]([C@H]5O[C@](C)(O)[C@H](C)C[C@@H]5C)C[C@@H]4O[C@@H]4C[C@H](OC)[C@@H](OC)[C@H](C)O4)O3)O2)C[C@H](O)[C@H]1C` [MADURAMICIN ACID], the half-maximal inhibitory concentration (IC50) entry on D(4) dopamine receptor is “Not Active”; against Estrogen receptor it was “Not Active”; in assay [1] it was “Not Active”; in assay [3] (read-out: IC50) it was 33 nM; at Progesterone receptor, “Not Active”. The Ki result in assay [1] was “Not Active”; in assay [3], 21 nM.

Take `Cc1cccc(C)c1OCC(C)N` (stereo unspecified) [MEXILETINE]: the IC50 entry was “Not Active” at D(4) dopamine receptor; “Not Active” against Estrogen receptor; “Not Active” in assay [1]; “Not Active” in assay [2]; 1140 nM in assay [3] (read-out: IC50); “Not Active” at Progesterone receptor. For the same molecule, the inhibitory constant (Ki) entry in assay [1] was “Not Active”; in assay [3], 724 nM.

As for `Nc1cc(N2CCCCC2)nc(N)[n+]1[O-]` [MINOXIDIL], the IC50 result (on D(4) dopamine receptor; on Estrogen receptor; in assay [1]; in assay [2]; in assay [3] (cho-k1); on Progesterone receptor) was “Not Active” throughout. Moreover, in assay [1], the Ki result was “Not Active”.

For the molecule `CO[C@H]1/C=C/O[C@@]2(C)Oc3c(C)c(O)c4c(O)c(c(/C=N/N5CCN(C6CCCC6)CC5)c(O)c4c3C2=O)NC(=O)/C(C)=C\C=C\[C@H](C)[C@H](O)[C@@H](C)[C@@H](O)[C@@H](C)[C@H](OC(C)=O)[C@@H]1C` [RIFAPENTINE], the concentration for half-maximal inhibition (IC50) entry (at D(4) dopamine receptor; against Estrogen receptor; in assay [1]; in assay [2]; in assay [3] (cho-k1); at Progesterone receptor) was “Not Active” in each case. For the same molecule, in assay [1], the Ki entry is recorded as “Not Active”.

As for `CCCCOc1cc(CC2CNC(=O)N2)ccc1OC` (stereo unspecified) [RO-201724], the 50% inhibitory concentration (IC50) result (at D(4) dopamine receptor; against Estrogen receptor; in assay [1]; in assay [2]; in assay [3] (cho-k1); at Progesterone receptor) was “Not Active” in each case. Moreover, the Ki entry in assay [1] is reported as “Not Active”.

As for `O=C(Oc1ccccc1C(=O)O)c1ccccc1O` [SALSALATE], the IC50 result (at D(4) dopamine receptor; at Estrogen receptor; in assay [1]; in assay [2]; in assay [3] (cho-k1); on Progesterone receptor) was “Not Active” throughout. For the same molecule, the Ki entry in assay [1] is recorded as “Not Active”.

For `O=C1C(CC[S+]([O-])c2ccccc2)C(=O)N(c2ccccc2)N1c1ccccc1` (stereo unspecified) [SULFINPYRAZONE], the half-maximal inhibitory concentration (IC50) result (on D(4) dopamine receptor; at Estrogen receptor; in assay [1]; in assay [2]; in assay [3] (cho-k1); at Progesterone receptor) was “Not Active” each time. Further, in assay [1], the Ki entry is recorded as “Not Active”.

Consider `NC(=O)N1C(=O)/C(=C(\O)c2cccs2)c2cc(Cl)ccc21` [TENIDAP], for which the IC50 entry (on D(4) dopamine receptor; at Estrogen receptor; in assay [1]; in assay [2]; in assay [3] (cho-k1); at Progesterone receptor) was “Not Active” each time. Moreover, the inhibition constant (Ki) entry in assay [1] is recorded as “Not Active”.

Turning to `COc1cc2nc(N3CCN(C(=O)C4CCCO4)CC3)nc(N)c2cc1OC` (stereo unspecified) [TERAZOSIN], the IC50 result is “Not Active” at D(4) dopamine receptor; “Not Active” on Estrogen receptor; “Not Active” in assay [1]; 6.03 nM in assay [2] (read-out: IC50); “Not Active” in assay [3] (cho-k1). Further, the Ki entry in assay [1] was “Not Active”; in assay [2] (read-out: Ki) it was 3.33 nM.

On to `CS(=O)(=O)c1ccc([C@@H](O)[C@@H](CO)NC(=O)C(Cl)Cl)cc1` [THIAMPHENICOL], for which the IC50 result (on D(4) dopamine receptor; at Estrogen receptor; in assay [1]; in assay [2]; in assay [3] (cho-k1); on Progesterone receptor) was “Not Active” throughout. For the same molecule, the Ki result in assay [1] was “Not Active”.

Take `CCN(CC)CCNC(=O)c1cc(S(C)(=O)=O)ccc1OC` [TIAPRIDE]: the half-maximal inhibitory concentration (IC50) result (at D(4) dopamine receptor; at Estrogen receptor; in assay [1]; in assay [2]; in assay [3] (cho-k1); on Progesterone receptor) was “Not Active” in each case. Besides, the inhibitory constant (Ki) entry in assay [1] is listed as “Not Active”.

In the case of `Clc1ccccc1CN1CCc2sccc2C1` [TICLOPIDINE], the IC50 entry (at D(4) dopamine receptor; against Estrogen receptor; in assay [1]; in assay [2]; in assay [3] (cho-k1); at Progesterone receptor) was “Not Active” each time. The Ki entry in assay [1] is on record as “Not Active”.
